# Key:
# Ba/F3-TPM3-NTRK1 = target: T1, Ba/F3-TPM3-NTRK1 (Homo sapiens, UniProt P04629); experiment: Ba/F3-TPM3-NTRK1 cells proliferation assay; assay type: cell-based; conditions: 72 h, CellTiter Glo
# T1 construct: expressed in transfected cells; host or cells: Ba/F3; the other entry of the earlier key: TPM3 (P06753, Tropomyosin alpha-3 chain)
# In short: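 Ba/F3 cells stably expressing TPM3-NTRK1 or ETV6-NTRK3 fusions, 2000/well, exposed 72 h to compound at 300 to 0.05 nM final (3-fold series, 0.5% DMSO). Viability by CellTiter-Glo luminescence; IC50 by four-parameter nonlinear regression.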
# [1] = Liver microsomes metabolic stability assay, rat; assay type: in vitro ADME; conditions: male, rat liver microsomes 0.5 mg/mL, 37° C.; for half-life at 2 μM: read-out: t1/2 Rat
# In short: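 Pooled human, male rat or male mouse liver microsomes (0.5 mg/mL final) incubated at 37° C with 2 μM compound, with or without 1 mM NADPH. Samples at 0-60 min quenched in cold acetonitrile and analyzed by LC-MS/MS in duplicate. t1/2 derived from ln(% remaining) vs time slope, converted to CLint (μL/min/mg).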
# T1 sequence (P04629 510-796 limits assumed): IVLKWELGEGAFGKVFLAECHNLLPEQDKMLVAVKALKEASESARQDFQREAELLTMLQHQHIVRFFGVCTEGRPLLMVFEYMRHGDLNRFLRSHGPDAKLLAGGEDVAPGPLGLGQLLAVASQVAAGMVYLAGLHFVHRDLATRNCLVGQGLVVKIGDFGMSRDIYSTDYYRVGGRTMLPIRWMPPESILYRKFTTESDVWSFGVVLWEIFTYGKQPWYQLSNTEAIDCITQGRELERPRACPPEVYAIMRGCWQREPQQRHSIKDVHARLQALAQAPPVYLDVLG
IC50 (Ba/F3-TPM3-NTRK1) [nM],microsomal CLint at 2 μM [1] [µL/min/mg],half-life at 2 μM [1] [min],Compound
3.88,69.1,20.1,"OC1CC(c2nnc(-c3cnn4ccc(N5CCC[C@@H]5c5cc(F)ccc5F)nc34)[nH]2)C1 (stereo partly drawn) [Compound 31, (R)-3-(5-(5-(2-(2,5-difluorophenyl)pyrrolidin-1-yl)pyrazolo[1,5-a]pyrimidin-3-yl)-4H-1,2,4-triazol-3-yl)cyclobutan-1-ol]"
3.55,29.3,47.3,"C[C@H](O)c1nnc(-c2cnn3ccc(N4CCC[C@@H]4c4cc(F)ccc4F)nc23)[nH]1 [Compound 4, (S)-1-(5-(5-((R)-2-(2,5-difluorophenyl)pyrrolidin-1-yl)pyrazolo[1,5-a]pyrimidin-3-yl)-4H-1,2,4-triazol-3-yl)ethan-1-ol]"
13.6,5.23,–,"C[C@H](N)c1nnc(-c2cnn3ccc(N4CCC[C@@H]4c4cc(F)ccc4F)nc23)[nH]1 [Compound 11, (S)-1-(5-(5-((R)-2-(2,5-difluorophenyl)pyrrolidin-1-yl)pyrazolo[1,5-a]pyrimidin-3-yl)-4H-1,2,4-triazol-3-yl)ethan-1-amine]"
–,78.5,17.7,"Cc1nnc(-c2cnn3ccc(N4CCCC4c4cc(F)ccc4F)nc23)[nH]1 (stereo not shown) [Comparative compound A, 5-[2-(2,5-Difluorophenyl)pyrrolidin-1-yl]-3-(5-methyl-1H-1,2,4-triazol-3-yl)pyrazolo[1,5-a]pyrimidine, reference compound]"
8.17,25.3,54.9,"CC(C)(O)c1nnc(-c2cnn3ccc(N4CCC[C@@H]4c4cc(F)ccc4F)nc23)[nH]1 [Compound 7, (R)-2-(5-(5-(2-(2,5-difluorophenyl)pyrrolidin-1-yl)pyrazolo[1,5-a]pyrimidin-3-yl)-4H-1,2,4-triazol-3-yl)propan-2-ol]"

# Further lines, the molecule ahead of its results:
Compound,IC50 (Ba/F3-TPM3-NTRK1) [nM],microsomal CLint at 2 μM [1] [µL/min/mg],half-life at 2 μM [1] [min]
"CC(C)(O)Cc1nnc(-c2cnn3ccc(N4CCC[C@@H]4c4cc(F)ccc4F)nc23)[nH]1 [Compound 30, (R)-1-(5-(5-(2-(2,5-difluorophenyl)pyrrolidin-1-yl)pyrazolo[1,5-a]pyrimidin-3-yl)-4H-1,2,4-triazol-3-yl)-2-methylpropan-2-ol]",13.8,69.6,19.9
"C[C@@H](CO)c1nnc(-c2cnn3ccc(N4CCC[C@@H]4c4cc(F)ccc4F)nc23)[nH]1 [Compound 39, (R)-2-(5-(5-((R)-2-(2,5-difluorophenyl)pyrrolidin-1-yl)pyrazolo[1,5-a]pyrimidin-3-yl)-4H-1,2,4-triazol-3-yl)propan-1-ol]",7.42,80.2,17.3
"OC1(c2nnc(-c3cnn4ccc(N5CCC[C@@H]5c5cc(F)ccc5F)nc34)[nH]2)CCC1 [Compound 23, (R)-1-(5-(5-(2-(2,5-difluorophenyl)pyrrolidin-1-yl)pyrazolo[1,5-a]pyrimidin-3-yl)-4H-1,2,4-triazol-3-yl)cyclobutan-1-ol]",20.9,50,27.7

# Source: patent publication US20210395256A1, “TYROSINE KINASE INHIBITORS, COMPOSITIONS AND METHODS THERE OF” (Betta Pharmaceuticals Co., Ltd., priority 2018, published 2021)
